Reference: ChEMBL document CHEMBL1759835, “Biotransformation of natural compounds. Oxido-reduction of Sch-642305 by Aspergillus ochraceus ATCC 1009” (Bioorg Med Chem Lett, 2011)

Columns and labels:
MDA-MB-231 = assay: Cytotoxicity against human MDA-MB-231 cells assessed as inhibition of cell proliferation after 72 hrs by MTS assay; type: functional, cell-based; conditions: MDA-MB-231, 72 h
Escherichia coli = assay: Antibacterial activity against Escherichia coli ATCC 25922 at 100 ug by disk inhibition zone method relative to chloramphenicol; type: functional; design: scale not given: the % may be the effect or the level left
Bacillus subtilis = assay: Antibacterial activity against Bacillus subtilis ATCC 6633 at 100 ug by disk inhibition zone method relative to gentamycin; type: functional; design: scale not given: the % may be the effect or the level left
Micrococcus luteus = assay: Antibacterial activity against Micrococcus luteus ATCC 10240 at 100 ug by disk inhibition zone method relative to chloramphenicol; type: functional; design: scale not given: the % may be the effect or the level left
K562 = assay: Cytotoxicity against human K562 cells assessed as inhibition of cell proliferation after 72 hrs by MTS assay; type: functional, cell-based; conditions: K562, 72 h

Compound	IC50 (MDA-MB-231) [nM]	Activity (Escherichia coli) [%]	Activity (Bacillus subtilis) [%]	Activity (Micrococcus luteus) [%]	IC50 (K562) [nM]
C[C@H]1CCCC[C@H]2C(=O)CC[C@H](O)[C@@H]2CC(=O)O1	400	50	0	0	200
C[C@H]1CCCC[C@H]2C(=O)C=C[C@H](O)[C@@H]2CC(=O)O1	20	0	100	38	20
C[C@H]1CCCC[C@@H]2[C@@H](CC(=O)O1)[C@@H](O)CC[C@@H]2O	40	0	0	0	4
C[C@H]1CCCC[C@H]2C(=O)C[C@H](O)[C@H](O)[C@@H]2CC(=O)O1	12	0	62.5	0	20
